We go through nine compounds from article PMC12145819, “Challenging activity and signaling bias in tachykinin NK1 and NK2 receptors by truncated neuropeptides” (The Journal of Biological Chemistry, 2025).

No end group written: not given here.

In general, EC50 refers to the concentration needed to bring the measured effect to its halfway point.

Experiment [1] addresses T1, NK1R WT (human TACR1) (Homo sapiens, UniProt P25103).
T1 construct: host or cells: COS7 cells, transient calcium-precipitation transfection
Description: IP3 accumulation assay (Gq activation), NK1R. In kind it is cell-based.
Description: (§1) COS7 cells were plated in either clear- or white- or white with clear bottom 96-well plates that were coated with poly-D-lysine (Sigma-Aldrich) 30 min prior to cell seeding (20.000 cells/well). The following day plates were transiently transfected using calcium precipitation with 200 ng/well DNA of receptor DNA and for the cAMP assays a 1000 ng/well of CAMYEL in a culture medium with the addition of 100 μM (final concentration) chloroquine. Transfection was stopped 5 h later with the addition of a fresh maintenance medium.
(§2) COS7 cells seeded in clear 96-well plates were incubated with 0.5 μCi/ml myo [3H]inositol (PerkinElmer) in 100 μl growth medium overnight following the transfection. The subsequent day cells were washed twice with 200 μl/well HBSS (GIBCO, Life Technologies) and preincubated for 5 min at 37 °C with 100 μl/well HBSS buffer supplemented with 10 mM LiCl. Ligand addition was followed by 90 min incubation at 37 °C. To stop ligand incubation, cells were lysed with 40 μl 10 mM formic acid followed by 30 min incubation on ice. Subsequently, 35 μl of the lysate was transferred to white 96-well plates together with 60 μl of 1:8 diluted YSi SPA scintillation beads (PerkinElmer). Plates were sealed and vigorously shaken for 15 min followed by 5 min centrifugation at 1500 rpm. Measurements (scintillation) were recorded on a MicroBeta (PerkinElmer) after a 4 h delay, and determinations were made in duplicates.
(§3) In both assay formats, the measurement window could shift between runs without affecting the overall curve shape. Emax and Emin values often shifted uniformly upward or downward, while the sigmoidal profile remained consistent, contributing to increased standard deviation.
(§4) All concentration-response curves have been calculated using Prism 10 software (GraphPad Software, www.graphpad.com) nonlinear regression with four parameters. SD is used for concentration-response curves to illustrate variability in experimental measurements. However, when comparing LogEC50 values, standard error of the mean (SEM) is used to reflect the precision of the estimated means and facilitate statistical comparisons. This approach ensures an accurate representation of variability while maintaining appropriate statistical rigor for hypothesis testing. All data consist of two technical replicates from three biological replicates. Statistical significance of differences between LogEC50 values (based on SEM estimates) was assessed using an unpaired two-tailed t test. Normal distribution of LogEC50 values was confirmed by the Shapiro–Wilk test. p-Values were represented using asterisks: ns for p > 0.05 (not significant), ∗ for p ≤ 0.05, ∗∗ for p ≤ 0.01, ∗∗∗ for p ≤ 0.001, and ∗∗∗∗ for p ≤ 0.0001.

The target in experiment [2] is T1, NK1R WT (human TACR1). Briefly: BRET-based cAMP assay (Gs activation), NK1R. The experiment is classed as cell-based.
Description: (§5) All receptor constructs of WT and modified human TACR1 and TACR2 were inserted into the pcDNA3.1(+)-C-DYK vector (Genscript) whereas CAMYEL ([34]) was expressed via pcDNA3.1(+) vector.
COS7 cells were maintained in Dulbecco's modified Eagle's medium 1885 with GlutaMAX supplemented with 10% fetal bovine serum (Sigma-Aldrich), 100 units/ml penicillin and 100 μg/ml streptomycin at 37 °C with 10% CO2. […] COS7 cells were plated in either clear- or white- or white with clear bottom 96-well plates that were coated with poly-D-lysine (Sigma-Aldrich) 30 min prior to cell seeding (20.000 cells/well). The following day plates were transiently transfected using calcium precipitation with 200 ng/well DNA of receptor DNA and for the cAMP assays a 1000 ng/well of CAMYEL in a culture medium with the addition of 100 μM (final concentration) chloroquine. Transfection was stopped 5 h later with the addition of a fresh maintenance medium.
(§6) The intracellular level of cAMP was monitored in real-time using BRET. This was achieved by implementing a construct consisting of a cAMP binding protein (exchange protein activated by cAMP (EPAC)) which has been flanked by a BRET pair consisting of Renilla luciferase (Rluc) and yellow fluorescent protein (YFP). This construct is called CAMYEL (cAMP sensor using YFP-Epac-Rluc) and enables cAMP production to be sensed as Epac change conformations in response to increasing levels of cAMP, ultimately resulting in a loss of BRET signal.
On the day of the assay, white 96-well plates with COS7 cells were washed twice with 100 μl/well Hank’s balanced salt solution (HBSS) (GIBCO, Life Technologies) and preincubated for 30 min at 37 °C with 85 μl HBSS. Luciferase substrate coelenterazine h (Thermo Fisher Scientific) was added to a final concentration of 5 μM, and a baseline measurement was taken after 5 min. […] The BRET signal was calculated as the ratio of emission intensity at 535 nm (citrine) to the emission intensity at 475 nm (luciferase). Determinations were made in minimum duplicates.
as §3
All concentration-response curves have been calculated using Prism 10 software (GraphPad Software, www.graphpad.com) nonlinear regression with four parameters. SD is used for concentration-response curves to illustrate variability in experimental measurements. However, when comparing LogEC50 values, standard error of the mean (SEM) is used to reflect the precision of the estimated means and facilitate statistical comparisons. […] All data consist of two technical replicates from three biological replicates. Statistical significance of differences between LogEC50 values (based on SEM estimates) was assessed using an unpaired two-tailed t test. Normal distribution of LogEC50 values was confirmed by the Shapiro–Wilk test. p-Values were represented using asterisks: ns for p > 0.05 (not significant), ∗ for p ≤ 0.05, ∗∗ for p ≤ 0.01, ∗∗∗ for p ≤ 0.001, and ∗∗∗∗ for p ≤ 0.0001.
In experiment [3] the target is T2, NK2R WT (human TACR2) (Homo sapiens, UniProt P21452).
T2 construct: host or cells: COS7 cells, transient calcium-precipitation transfection
T2 sequence (P21452 1-398): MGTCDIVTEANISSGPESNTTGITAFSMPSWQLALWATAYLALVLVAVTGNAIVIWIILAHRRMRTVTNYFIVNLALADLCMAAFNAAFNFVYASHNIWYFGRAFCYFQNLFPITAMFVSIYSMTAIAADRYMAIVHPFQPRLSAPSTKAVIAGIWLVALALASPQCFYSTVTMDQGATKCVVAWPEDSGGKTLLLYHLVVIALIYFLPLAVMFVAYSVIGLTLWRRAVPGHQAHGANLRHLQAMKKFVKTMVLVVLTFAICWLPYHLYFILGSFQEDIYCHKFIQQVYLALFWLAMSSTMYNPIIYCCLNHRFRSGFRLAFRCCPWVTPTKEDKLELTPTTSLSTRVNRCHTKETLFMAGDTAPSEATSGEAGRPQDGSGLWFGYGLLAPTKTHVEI
Description: IP3 accumulation assay (Gq activation), NK2R. In kind it is cell-based.
Description: as §1, §2, §3, §4

Experiment [4] has as its target T2, NK2R WT (human TACR2). Description: BRET-based cAMP assay (Gs activation), NK2R. The experiment is classed as cell-based. A general note: Bioluminescence resonance energy transfer reports proximity on the nanometre scale.
Description: as §5
COS7 cells were tested monthly for mycoplasma and kept negative. COS7 cells were plated in either clear- or white- or white with clear bottom 96-well plates that were coated with poly-D-lysine (Sigma-Aldrich) 30 min prior to cell seeding (20.000 cells/well). The following day plates were transiently transfected using calcium precipitation with 200 ng/well DNA of receptor DNA and for the cAMP assays a 1000 ng/well of CAMYEL in a culture medium with the addition of 100 μM (final concentration) chloroquine. Transfection was stopped 5 h later with the addition of a fresh maintenance medium.
as §6
On the day of the assay, white 96-well plates with COS7 cells were washed twice with 100 μl/well Hank’s balanced salt solution (HBSS) (GIBCO, Life Technologies) and preincubated for 30 min at 37 °C with 85 μl HBSS. Luciferase substrate coelenterazine h (Thermo Fisher Scientific) was added to a final concentration of 5 μM, and a baseline measurement was taken after 5 min. […] Determinations were made in minimum duplicates.
as §3, §4
The test system of experiment [5] is NK1R-R177 mutated to lysine. The settings on record: NK1R-R177 to lysine vs WT; cited from earlier work.
Experiment [6] deals with NK1R-Q24 mutated to asparagine. The settings on record: NK1R-Q24 to asparagine vs WT; cited from earlier work.
Experiment [7] relates to NK1R-R177 mutated to alanine. The settings on record: NK1R-R177 to alanine vs WT; cited from earlier work.
For experiment [8], the system named is NK1R. The settings on record: cited from earlier work.
In experiment [9] the test system is NK1R. The settings on record: cited from earlier work. This is another data set of the same source.
The mark [10] stands for this setting: read-out: log(EC50), IP3 - NK1R WT (converted).
The mark [11] stands for this setting: Fig. 2A, acetylated analogs, given as log(EC50), transfected COS7 cells, three independent experiments in duplicates.
The mark [12] stands for this setting: Fig. 6B, given as log(EC50), transfected COS7 cells, three independent experiments in duplicates, read-out: log(EC50), IP3 - NK2R WT (converted).
Setting [13] is: Fig. 6A, given as log(EC50), transfected COS7 cells, three independent experiments in duplicates, read-out: log(EC50), cAMP - NK2R WT (converted).
[14] abbreviates: Fig. 2D, analogs with free N termini, given as log(EC50), transfected COS7 cells, three independent experiments in duplicates.
The mark [15] stands for this setting: Fig. 2C, analogs with free N termini, given as log(EC50), transfected COS7 cells, three independent experiments in duplicates.
Setting [16] is: read-out: log(EC50), cAMP - NK1R WT (converted).

T1 sequence (P25103 whole entry): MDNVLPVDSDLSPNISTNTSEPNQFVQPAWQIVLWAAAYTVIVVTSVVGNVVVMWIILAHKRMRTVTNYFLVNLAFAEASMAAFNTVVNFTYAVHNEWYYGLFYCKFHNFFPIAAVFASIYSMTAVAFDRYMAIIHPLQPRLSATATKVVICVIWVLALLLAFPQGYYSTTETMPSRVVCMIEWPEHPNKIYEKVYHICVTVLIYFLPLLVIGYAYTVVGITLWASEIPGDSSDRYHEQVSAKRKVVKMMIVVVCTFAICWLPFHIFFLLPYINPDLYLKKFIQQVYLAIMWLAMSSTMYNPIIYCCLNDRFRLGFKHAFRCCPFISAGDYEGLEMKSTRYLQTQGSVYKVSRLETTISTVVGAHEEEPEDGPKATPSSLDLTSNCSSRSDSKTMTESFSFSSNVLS

For the compound Ac-QFFGLM-NH2 [Ac-QFFGLM-NH2], the values for the EC50 in [1] (setting [10]) and in [2] (setting [11]) were 1.58 nM and 3.98 nM, respectively. The “reduction in Gs potency” value in experiment [2] (NK1R, relative to SP) is recorded as 5.0 fold.
Regarding Ac-QQFFGLM-NH2 [Ac-QQFFGLM-NH2], the EC50 is 3.16 nM in experiment [1] (setting [10]) and 1.26 nM in experiment [2] (setting [11]).
Take `CSCC[C@H](NC(=O)[C@H](CC(C)C)NC(=O)CNC(=O)[C@@H](NC(=O)[C@H](Cc1ccccc1)NC(=O)[C@H](CO)NC(=O)[C@H](CC(=O)O)NC(C)=O)C(C)C)C(N)=O` [Ac-DSFVGLM-NH2]: the results for the EC50 in [3] (setting [12]) and in experiment [4] (setting [13]) were 20 nM and 50.1 nM, respectively.
`CSCC[C@H](NC(=O)[C@H](CC(C)C)NC(=O)CNC(=O)[C@H](Cc1ccccc1)NC(=O)[C@H](Cc1ccccc1)NC(=O)[C@H](CCC(N)=O)NC(=O)[C@H](CCC(N)=O)NC(=O)[C@@H]1CCCN1C(=O)[C@H](CCCCN)NC(=O)[C@@H]1CCCN1C(=O)[C@@H](N)CCCNC(=N)N)C(N)=O` [SP, substance P]: the “reduction of binding affinity for SP (factor)” value in experiment [5] was 60; in experiment [6], “five”; in experiment [7], 46.
For the compound QQFFGLM-NH2 [QQFFGLM-NH2], the values for the EC50 in experiment [1] (setting [14]) and in experiment [2] (setting [15]) were 5.01 nM and 7.94 nM, respectively.
In the case of QFFGLM-NH2 [QFFGLM-NH2], the “lower activity in BRET-based cAMP assay (Gs) compared to SP” value in experiment [8] is given as 16 fold. For the same compound, in experiment [9], the “activity in IP3 accumulation assay (Gq) compared to SP” value was “half activity”. The EC50 in experiment [1] (setting [14]) was 12.6 nM; in experiment [1] (Fig. 5A, Gq activation, given as log(EC50), transfected COS7 cells, three independent experiments in duplicates), 20 nM; in experiment [2] (setting [15]), 15.8 nM. In experiment [1] (NK1R, Fig. 5A, compared with acetylated analog and SP), the “lower Gq potency” value came out at 15 fold.
Consider SFVGLM-NH2 [SFVGLM-NH2], for which the EC50 is 200 nM in experiment [3] (setting [12]), 1580 nM in [4] (setting [13]), 50.1 nM in [1] (setting [10]) and 316 nM in [2] (setting [16]).
Turning to `CSCC[C@H](NC(=O)[C@H](CC(C)C)NC(=O)CNC(=O)[C@@H](NC(=O)[C@H](Cc1ccccc1)NC(=O)[C@H](CO)NC(=O)[C@@H](N)CC(=O)O)C(C)C)C(N)=O` [DSFVGLM-NH2], the EC50 in [3] and in [4] was 10 nM throughout. In addition, the “increase in Gs potency compared to acetylated counterpart” value in experiment [4] (NK2R, Fig. 6A, analog with a free N terminal) is recorded as “five”.
Ac-SFVGLM-NH2 [Ac-SFVGLM-NH2]: the EC50 was 50.1 nM in [3] (setting [12]), 316 nM in experiment [4] (setting [13]), 7.94 nM in experiment [1] (setting [10]) and 200 nM in experiment [2] (setting [16]).
